According to patent publication US11957696B2 (Propella Therapeutics, Inc., priority 2021, dated 2024):

System: CYP17 hydroxylase/lyase
Assay: Steroid hormone analysis (serum) in 13-week study
Format: in vivo, cynomolgus monkeys
Details: for Serum 17OH-Progesterone CFB (vs Day −1) / Serum 17OH-Progesterone Mean / Serum Aldosterone CFB (vs Day −1) / Serum Aldosterone Mean / Serum Androstenedione CFB (vs Day −1) / Serum Androstenedione Mean / Serum Corticosterone CFB (vs Day −1) / Serum Corticosterone Mean / Serum Cortisol CFB (vs Day −1) / Serum Cortisol Mean / Serum Dehydroepiandrosterone CFB (vs Day −1) / Serum Dehydroepiandrosterone Mean / Serum Deoxycortisol CFB (vs Day −1) / Serum Deoxycortisol Mean / Serum Dihydrotestosterone CFB (vs Day −1) / Serum Dihydrotestosterone Mean / Serum Progesterone CFB (vs Day −1) / Serum Progesterone Mean / Serum Testosterone CFB (vs Day −1) / Serum Testosterone Mean: intact male monkeys
Description: Sample Collection for Steroid Hormone Analysis (Serum): Blood samples (approximately 2.5 mL) were collected from all animals via the femoral vein for the steroid hormone analysis. The animals were fasted prior to blood collection.

[1] = 20 mg/kg IM every two weeks, Day 15
[2] = 20 mg/kg IM every two weeks, Day 85
[3] = 60 mg/kg IM every two weeks, Day 15
[4] = 60 mg/kg IM every two weeks, Day 85
[5] = 200 mg/kg IM every two weeks, Day 15
[6] = 200 mg/kg IM every two weeks, Day 85
[7] = Day 85, 20 and 60 mg/kg dose groups

For `CCCCCCCCCC(=O)O[C@H]1CC[C@@]2(C)C(=CC[C@@H]3[C@@H]2CC[C@]2(C)C(c4cccnc4)=CC[C@@H]32)C1` [Abiraterone Decanoate, abiraterone decanoate], the “Serum 17OH-Progesterone CFB (vs Day −1)” value [1] was 1060%, the “Serum 17OH-Progesterone Mean” value [1] was 4289 pg/mL and the “Serum Aldosterone CFB (vs Day −1)” value [1] was −68%. For the same molecule, the “Serum Aldosterone Mean” value [1] was 45 pg/mL, the “Serum Androstenedione CFB (vs Day −1)” value [1] was −82% and the “Serum Androstenedione Mean” value [1] was 39 pg/mL. The “Serum Corticosterone CFB (vs Day −1)” value [1] was 3361%, the “Serum Corticosterone Mean” value [1] was 110635 pg/mL and the “Serum Cortisol CFB (vs Day −1)” value [1] was −76%. For the same molecule, the “Serum Cortisol Mean” value [1] was 34897 pg/mL, the “Serum Dehydroepiandrosterone CFB (vs Day −1)” value [1] was −73% and the “Serum Dehydroepiandrosterone Mean” value [1] was 1500 pg/mL. The “Serum Deoxycortisol CFB (vs Day −1)” value [1] was −64%, the “Serum Deoxycortisol Mean” value [1] was 241 pg/mL and the “Serum Dihydrotestosterone CFB (vs Day −1)” value [1] was −87%. The “Serum Dihydrotestosterone Mean” value [1] was 195 pg/mL, the “Serum Progesterone CFB (vs Day −1)” value [1] was 51539% and the “Serum Progesterone Mean” value [1] was 10328 pg/mL. The “Serum Testosterone CFB (vs Day −1)” value [1] was −65%, the “Serum Testosterone Mean” value [1] was 2148 pg/mL and the “Serum Testosterone CFB (vs Day −1)” value (20 mg/kg IM every two weeks, Day 15, listed as AbiDec) was −87%. The “Serum 17OH-Progesterone CFB (vs Day −1)” value [2] was 1968%, the “Serum 17OH-Progesterone Mean” value [2] was 7647 pg/mL and the “Serum Aldosterone CFB (vs Day −1)” value [2] was 40%. For the same molecule, the “Serum Aldosterone Mean” value [2] was 199 pg/mL, the “Serum Androstenedione CFB (vs Day −1)” value [2] was −53% and the “Serum Androstenedione Mean” value [2] was 106 pg/mL. For the same molecule, the “Serum Corticosterone CFB (vs Day −1)” value [2] was 2837%, the “Serum Corticosterone Mean” value [2] was 93869 pg/mL and the “Serum Cortisol CFB (vs Day −1)” value [2] was −58%. The “Serum Cortisol Mean” value [2] was 62490 pg/mL, the “Serum Dehydroepiandrosterone CFB (vs Day −1)” value [2] was −76% and the “Serum Dehydroepiandrosterone Mean” value [2] was 1372 pg/mL. For the same molecule, the “Serum Deoxycortisol CFB (vs Day −1)” value [2] was −47%, the “Serum Deoxycortisol Mean” value [2] was 357 pg/mL and the “Serum Dihydrotestosterone CFB (vs Day −1)” value [2] was −61%. The “Serum Dihydrotestosterone Mean” value [2] was 578 pg/mL, the “Serum Progesterone CFB (vs Day −1)” value [2] was 47710% and the “Serum Progesterone Mean” value [2] was 9562 pg/mL. For the same molecule, the “Serum Testosterone CFB (vs Day −1)” value [2] was 3%, the “Serum Testosterone Mean” value [2] was 6286 pg/mL and the “Serum 17OH-Progesterone CFB (vs Day −1)” value [3] was 944%. For the same molecule, the “Serum 17OH-Progesterone Mean” value [3] was 1631 pg/mL, the “Serum Aldosterone CFB (vs Day −1)” value [3] was −94% and the “Serum Aldosterone Mean” value [3] was 14 pg/mL. The “Serum Androstenedione CFB (vs Day −1)” value [3] was −94%, the “Serum Androstenedione Mean” value [3] was 20 pg/mL and the “Serum Corticosterone CFB (vs Day −1)” value [3] was 5279%. The “Serum Corticosterone Mean” value [3] was 163079 pg/mL, the “Serum Cortisol CFB (vs Day −1)” value [3] was −87% and the “Serum Cortisol Mean” value [3] was 18271 pg/mL. The “Serum Dehydroepiandrosterone CFB (vs Day −1)” value [3] was −75%, the “Serum Dehydroepiandrosterone Mean” value [3] was 1271 pg/mL and the “Serum Deoxycortisol CFB (vs Day −1)” value [3] was −72%. The “Serum Deoxycortisol Mean” value [3] was 93 pg/mL, the “Serum Dihydrotestosterone CFB (vs Day −1)” value [3] was −95% and the “Serum Dihydrotestosterone Mean” value [3] was 64 pg/mL. The “Serum Progesterone CFB (vs Day −1)” value [3] was 69193%, the “Serum Progesterone Mean” value [3] was 13859 pg/mL and the “Serum Testosterone CFB (vs Day −1)” value [3] was −94%. For the same molecule, the “Serum Testosterone Mean” value [3] was 335 pg/mL, the “Serum Testosterone CFB (vs Day −1)” value (60 mg/kg IM every two weeks, Day 15, listed as AbiDec) was −95% and the “Serum 17OH-Progesterone CFB (vs Day −1)” value [4] was 5546%. The “Serum 17OH-Progesterone Mean” value [4] was 8821 pg/mL, the “Serum Aldosterone CFB (vs Day −1)” value [4] was −18% and the “Serum Aldosterone Mean” value [4] was 194 pg/mL. For the same molecule, the “Serum Androstenedione CFB (vs Day −1)” value [4] was −77%, the “Serum Androstenedione Mean” value [4] was 79 pg/mL and the “Serum Corticosterone CFB (vs Day −1)” value [4] was 3878%. The “Serum Corticosterone Mean” value [4] was 120598 pg/mL, the “Serum Cortisol CFB (vs Day −1)” value [4] was −72% and the “Serum Cortisol Mean” value [4] was 39689 pg/mL. For the same molecule, the “Serum Dehydroepiandrosterone CFB (vs Day −1)” value [4] was −76%, the “Serum Dehydroepiandrosterone Mean” value [4] was 1200 pg/mL and the “Serum Deoxycortisol CFB (vs Day −1)” value [4] was −7%. The “Serum Deoxycortisol Mean” value [4] was 315 pg/mL, the “Serum Dihydrotestosterone CFB (vs Day −1)” value [4] was −69% and the “Serum Dihydrotestosterone Mean” value [4] was 361 pg/mL. For the same molecule, the “Serum Progesterone CFB (vs Day −1)” value [4] was 67947%, the “Serum Progesterone Mean” value [4] was 13609 pg/mL and the “Serum Testosterone CFB (vs Day −1)” value [4] was 1%. The “Serum Testosterone Mean” value [4] was 5453 pg/mL, the “Serum 17OH-Progesterone CFB (vs Day −1)” value [5] was 158% and the “Serum 17OH-Progesterone Mean” value [5] was 474 pg/mL. The “Serum Aldosterone CFB (vs Day −1)” value [5] was −91%, the “Serum Aldosterone Mean” value [5] was 19 pg/mL and the “Serum Androstenedione CFB (vs Day −1)” value [5] was −93%. For the same molecule, the “Serum Androstenedione Mean” value [5] was 20 pg/mL, the “Serum Corticosterone CFB (vs Day −1)” value [5] was 4238% and the “Serum Corticosterone Mean” value [5] was 138133 pg/mL. The “Serum Cortisol CFB (vs Day −1)” value [5] was −93%, the “Serum Cortisol Mean” value [5] was 7703 pg/mL and the “Serum Dehydroepiandrosterone CFB (vs Day −1)” value [5] was −64%. The “Serum Dehydroepiandrosterone Mean” value [5] was 1200 pg/mL, the “Serum Deoxycortisol CFB (vs Day −1)” value [5] was −84% and the “Serum Deoxycortisol Mean” value [5] was 44 pg/mL. The “Serum Dihydrotestosterone CFB (vs Day −1)” value [5] was −96%, the “Serum Dihydrotestosterone Mean” value [5] was 67 pg/mL and the “Serum Progesterone CFB (vs Day −1)” value [5] was 59894%. For the same molecule, the “Serum Progesterone Mean” value [5] was 11999 pg/mL, the “Serum Testosterone CFB (vs Day −1)” value [5] was −99% and the “Serum Testosterone Mean” value [5] was 100 pg/mL. The “Serum Testosterone CFB (vs Day −1)” value (200 mg/kg IM every two weeks, Day 15, listed as AbiDec) was −96%, the “Serum 17OH-Progesterone CFB (vs Day −1)” value [6] was 1696% and the “Serum 17OH-Progesterone Mean” value [6] was 3296 pg/mL. For the same molecule, the “Serum Aldosterone CFB (vs Day −1)” value [6] was −82%, the “Serum Aldosterone Mean” value [6] was 37 pg/mL and the “Serum Androstenedione CFB (vs Day −1)” value [6] was −87%. The “Serum Androstenedione Mean” value [6] was 39 pg/mL, the “Serum Corticosterone CFB (vs Day −1)” value [6] was 3468% and the “Serum Corticosterone Mean” value [6] was 113629 pg/mL. The “Serum Cortisol CFB (vs Day −1)” value [6] was −83%, the “Serum Cortisol Mean” value [6] was 19682 pg/mL and the “Serum Dehydroepiandrosterone CFB (vs Day −1)” value [6] was −64%. For the same molecule, the “Serum Dehydroepiandrosterone Mean” value [6] was 1200 pg/mL, the “Serum Deoxycortisol CFB (vs Day −1)” value [6] was −49% and the “Serum Deoxycortisol Mean” value [6] was 141 pg/mL. For the same molecule, the “Serum Dihydrotestosterone CFB (vs Day −1)” value [6] was −90%, the “Serum Dihydrotestosterone Mean” value [6] was 165 pg/mL and the “Serum Progesterone CFB (vs Day −1)” value [6] was 75799%. The “Serum Progesterone Mean” value [6] was 15180 pg/mL, the “Serum Testosterone CFB (vs Day −1)” value [6] was −87% and the “Serum Testosterone Mean” value [6] was 1246 pg/mL. The “Serum Testosterone CFB (vs Day −1)” value (200 mg/kg IM every two weeks, Day 85, listed as AbiDec) was −87%, the “serum testosterone levels reduced” value (200 mg/kg/dose, for at least 85 days) was “more than 75%” and the “Androstenedione serum concentration below Day −1” value [7] was 53-77%. The “dihydrotestosterone serum concentration below Day −1” value [7] was 61-69%, the circulating androgen levels (gonadally intact male monkeys, appeared dose dependent, sustained for testosterone through Day 85 at 200 mg/kg/dose) was “potent reductions in circulating androgen levels” and the “Serum testosterone concentrations following repeat administration” value (two lower dose groups (20, 60 mg/kg) by Day 85) was “returned to baseline”.
